Source: US7728032B2, “Phenoxymethylalkyne inhibitors of LTA4H for treating inflammation” (deCODE genetics ehf, priority 2006, dated 2010)
Counter-ions that a name gives are not always drawn. Like-named read-outs stand apart in the source and are kept apart here.

Columns and labels:
[1] = target: T1, recombinant human LTA4 hydrolase (Homo sapiens, UniProt P09960); assay: In vitro assay testing inhibitory activity against purified recombinant human LTA4 hydrolase; assay type: biochemical; details: 200 nM recombinant enzyme, 2 μM LTA4, 120 sec, LTB4 formed measured by LC-MS/MS
T1 construct: A human LTA4 hydrolase full-length cDNA clone (NM_000895) was purchased from OriGene Technologies; 6xHis (own knowledge: pDEST17 adds an N-terminal His tag); made in house; host or cells: Escherichia coli BL21-AI
T1 sequence (P09960 1-611): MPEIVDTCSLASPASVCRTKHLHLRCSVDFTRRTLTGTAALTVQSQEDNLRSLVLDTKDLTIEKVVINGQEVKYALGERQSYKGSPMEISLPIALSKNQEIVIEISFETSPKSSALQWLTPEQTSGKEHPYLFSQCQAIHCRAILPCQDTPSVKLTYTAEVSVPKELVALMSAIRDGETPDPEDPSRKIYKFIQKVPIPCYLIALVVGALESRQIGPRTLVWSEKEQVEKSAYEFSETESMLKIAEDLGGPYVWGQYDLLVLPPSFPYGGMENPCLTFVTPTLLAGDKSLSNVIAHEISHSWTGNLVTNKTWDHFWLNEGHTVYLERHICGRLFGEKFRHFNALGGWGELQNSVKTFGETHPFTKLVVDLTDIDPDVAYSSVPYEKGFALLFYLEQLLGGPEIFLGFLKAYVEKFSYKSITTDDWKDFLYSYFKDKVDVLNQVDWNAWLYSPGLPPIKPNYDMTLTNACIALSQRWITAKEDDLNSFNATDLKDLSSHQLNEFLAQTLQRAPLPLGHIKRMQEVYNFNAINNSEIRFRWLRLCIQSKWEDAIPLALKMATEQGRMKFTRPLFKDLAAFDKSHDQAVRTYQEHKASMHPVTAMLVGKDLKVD
From the text: (1) In vitro assay testing inhibitory activity against purified recombinant human LTA4 hydroase:
A human LTA4 hydrolase full-length cDNA clone (NM_000895) was purchased from OriGene Technologies (Rockville, Md.). The gene was amplified by polymerase chain reaction and transferred via pDONR201 into the bacterial expression vector pDEST17 by recombination (both plasmids from Invitrogen, Carlsbad, Calif.). The resulting construct was transformed into Escherichia coli BL21-AI (Invitrogen), and expression was induced by chemical induction with arabinose. The recombinant enzyme was purified by chromatography on a FPLC system (Amersham Biosciences, Uppsala, Sweden) using immobilized metal affinity chromatography (Ni-NTA Superflow, Qiagen, Hilden, Germany) and anion exchange chromatography (MonoQ HR 10/10, Amersham Biosciences).
The compounds of the invention were incubated in a series of dilutions with 200 nM of recombinant enzyme in assay buffer (100 mM Tris-HCl, 100 mM NaCl, 5 mg/ml fatty-acid free BSA, 10% DMSO, pH 8.0) for 10 min at room temperature to allow binding between LTA4 hydrolase and the inhibitors. LTA4 was prepared by alkaline hydrolysis of LTA4 methyl ester (Biomol, Plymouth Meeting, Pa., or Cayman Chemicals, Ann Arbor, Mich.). A solution of 10 μg of the ester was dried under a nitrogen stream and redissolved in 60 μl of a solution of 80% aceton and 20% 0.25 M NaOH. After incubation for 40 min at room temperature the resulting approximately 500 μM tock of LTA4 was kept at −80° C. for no more than a few days prior to use.
Immediately before the assay, LTA4 was diluted to a concentration of 10 μM in assay buffer (without DMSO) and added to the reaction mixture to a final concentration of 2 μM to initiate the enzyme reaction. After incubation for 120 sec at room temperature, the reaction was stopped by adding 2 volumes of chilled quenching buffer, containing acetonitril with 1% acetic acid and 225 nM LTB4-d4 (Biomol). The samples were then kept at 4° C. over night to complete protein precipitation and centrifuged for 15 min at 1800 g. LTB4 formed was measured by LC-MS/MS using LTB4-d4 as an internal standard and an external LTB4 standard (Biomol) as reference. Briefly, the analyte was separated from LTB4 isomers formed by spontaneous hydrolysis of LTA4 using isocratic elution (modified protocol from Mueller et al. (1996), J. Biol. Chem. 271, 24345-24348) on a HPLC system (Waters, Milford, Mass.) and analyzed on a tandem quadrupole mass spectrometer (Waters). MRM transitions followed on 2 channels were 335.2>195.3 (LTB4) and 339.2>197.3 (LTB4-d4). Based on the amounts of LTB4 found at each inhibitor concentration, a dose-response curve was fitted to the data and an IC50 value was calculated.

[2] = tested on: ionophore-induced LTB4 production; details: oral administration, mouse blood ex vivo; cited from earlier work
spontaneous colitis = details: eight weeks of treatment, primate model; cited from earlier work
[3] = tested on: ionophore-induced LTB4 production; details: oral administration, rat peritoneum in vivo; cited from earlier work

Row | IC50 [1] | Molecule | further results
1 | 5 to 20 µM | CC#CCOc1ccc(OCCN2CCCCC2)cc1 [Example 6, 1-[2-(4-But-2-ynyloxy-phenoxy)-ethyl]-piperidine] | 
2 | < 5 µM | C(#Cc1ccccc1)COc1ccc(OC[C@H]2CCCN2)cc1 [Example 2, 2-[4-(3-Phenyl-prop-2-ynyloxy)-phenoxymethyl]-pyrrolidine] | 
3 |  | CN(CCCOc1ccc(Cc2ccccc2)cc1)CCC(=O)O.Cl [SC57461] | inhibition of ionophore-induced LTB4 production [2]: inhibition; colitis symptoms (spontaneous colitis): significantly improved; inhibition of ionophore-induced LTB4 production [3]: inhibition
4 | 5 to 20 µM | Brc1ccc(C#CCOc2ccc(OC[C@H]3CCCN3)cc2)cc1 [Example 4, 2-{4-[3-(4-Bromo-phenyl)-prop-2-ynyloxy]-phenoxymethyl}-pyrrolidine hydrochloride] | 
5 | 5 to 20 µM | C#CCOc1ccc(OC[C@H]2CCCN2)cc1 [Example 1, (R)-2-(4-Prop-2-ynyloxy-phenoxymethyl)-pyrrolidine hydrochloride] | 

Row | Molecule | IC50 [1] | further results
6 | (4-{3-[4-(Pyrrolidin-2-ylmethoxy)-phenoxy]-prop-1-ynyl}-phenyl)-methanol [Example 3] | < 5 µM | 
